Experimental data taken from patent US20230110351A1, “METHODS FOR TREATING PARKINSON'S DISEASE WITH SEPIAPTERIN” (PTC Therapeutics MP, Inc., priority 2020, published 2023).
Like-named read-outs stand apart in the source and are kept apart here.

Experiments:
[1] = Food effect on administration of sepiapterin: plasma sepiapterin and BH4, fasted vs fed; assay type: in vivo; conditions: sepiapterin 10 mg/kg oral
Procedure: Method: Subjects received two oral doses of sepiapterin (10 mg/kg) separated by one week in a fasted and fed state. Subjects were fed a standard high-fat (approximately 50 percent of total caloric content of the meal) and high-calorie (approximately […] calories) meal starting 30 minutes prior to receiving their second oral dose of sepiapterin on Day 8.
Sampling for PK analysis occurred predose on Days 1 and 8 (within 30 minutes before dosing) and 0.5 hr, 1 hr, 2 hr, 4 hr, 8 hr, 12 hr, and 24 hr after the doses on Days 1 and 8. The blood concentrations of sepiapterin and BH4 were analyzed by MNG Labs.

[2] = Pharmacokinetic parameters for BH4 after single dose of sepiapterin or BH4 in fasted subjects; assay type: in vivo
Procedure: Six subjects received sepiapterin in each group and three subjects received BH4 in each group where this treatment was administered.
Values shown are means of plasma concentrations of BH4 following administration at the doses shown.

[3] = assay type: in vivo
Procedure: Method: Twelve subjects were given a single dose (10 mg/kg) of sepiapterin under fasting conditions and then 7 days later under fed conditions. Standard definitions of adverse events (AE) were used. All-cause AE were those that occurred at any time; treatment-emergent adverse events (TEAE) were those that occurred at or after the time of administration of study treatment. TEAEs related to study drug were based on the opinion of the investigator. Serious AE were defined as life threatening or caused death, hospitalization or prolongation of existing hospitalization, or were a persistent or significant disability/incapacity or a substantial disruption of the ability to conduct normal life functions, or a congenital anomaly/birth defect.

[4] = CSF levels of sepiapterin, BH4, BH2, HVA and 5-HIAA after administration of sepiapterin; assay type: in vivo
Procedure: The cerebrospinal fluid (CSF) of selected subjects was collected via lumbar puncture on Day1 (before dose) and on Day 7 (i.e., following daily dosing for 7 days) approximately 30 minutes from time of the maximum observed plasma BH4 concentration (Tmax) as determined from the blood analysis. The cerebral spinal fluid (CSF) was analyzed. Descriptive statistics are provided to characterize any changes in neurotransmitter metabolism between the Day 1, and Day 7 sample results. Method: Analyses were conducted in CSF samples of subjects administered 60 mg/kg sepiapterin or placebo. The following analytes were measured: sepiapterin, BH4, BH2, homovanillic acid (HVA), and 5-hydroxyindoleacetic acid (HIAA). Descriptive (n, mean, SD, median, minimum, maximum) statistics for these analytes at Day 1 and Day 7+/−30 minutes from Tmax and change from baseline at Day 7 were determined for each analyte.

[5] = Pharmacokinetic analysis of multiple doses of sepiapterin (once daily, 7 days, fed subjects); assay type: in vivo
Description: Methods: Three cohorts of eight fed subjects each were randomized to receive once-daily sepiapterin or placebo for 7 days in a 6:2 ratio. A sentinel dose strategy was also used for administration of the highest sepiapterin dose.

[6] = 60 mg/kg sepiapterin arm, Day 1 (before dose)
[7] = 60 mg/kg sepiapterin, Day 7, +/-30 minutes from BH4 Tmax
[8] = 60 mg/kg sepiapterin, Day 7, same subject
[9] = Day 1 pre-dose, one subject with low baseline
[10] = human, plasma, po, 5 mg/kg, sepiapterin 5 mg/kg once daily, Day 1
[11] = human, plasma, po, 5 mg/kg, sepiapterin 5 mg/kg once daily, Day 7
[12] = human, plasma, po, 20 mg/kg, sepiapterin 20 mg/kg once daily, Day 1
[13] = human, plasma, po, 20 mg/kg, sepiapterin 20 mg/kg once daily, Day 7
[14] = human, plasma, po, 60 mg/kg, sepiapterin 60 mg/kg once daily, Day 1
[15] = human, plasma, po, 60 mg/kg, sepiapterin 60 mg/kg once daily, Day 7

C[C@H](O)C(=O)C1=Nc2c(nc(N)[nH]c2=O)NC1 [sepiapterin]
concentration at 0 h ([1]; human, plasma, fasted, 0 h (predose), read-out: Sepiapterin Concentration in Plasma, Maximum): 0 nM
concentration at 0.5 h ([1]; human, plasma, fasted, 0.5 h, read-out: Sepiapterin Concentration in Plasma, Minimum): 0 nM
concentration at 4 h ([1]; human, plasma, fasted, 4 h, read-out: Sepiapterin Concentration in Plasma, Minimum): 0 nM
concentration at 8 h ([1]; human, plasma, fasted, 8 h, read-out: Sepiapterin Concentration in Plasma, Maximum): 0 nM
concentration at 12 h ([1]; human, plasma, fasted, 12 h, read-out: Sepiapterin Concentration in Plasma, Maximum): 0 nM
concentration at 24 h ([1]; human, plasma, fasted, 24 h, read-out: Sepiapterin Concentration in Plasma, Maximum): 0 nM
concentration at 1 h ([1]; human, plasma, fed, 1 h, read-out: Sepiapterin Concentration in Plasma, Minimum): 0 nM
concentration at 2 h ([1]; human, plasma, fed, 2 h, read-out: Sepiapterin Concentration in Plasma, Minimum): 0 nM
Cmax of BH4 in the plasma, fed compared to fasted [1]: much higher
Cmax of sepiapterin in the plasma, fed compared to fasted [1]: much lower
Geometric mean ratio (fasted/fed, 90% CI) for plasma sepiapterin AUClast [1]: 1.29 (0.84 to 2.00)
Geometric mean ratio (fasted/fed, 90% CI) for plasma sepiapterin Cmax [1]: 1.57 (1.21 to 2.0)
Sepiapterin Concentration in Plasma, Mean ([1]; fasted, 0 h (predose)): 0 nM
Sepiapterin Concentration in Plasma, Median ([1]; fasted, 0 h (predose)): 0 nM
concentration at 2 h ([1]; fasted, 0 h (predose), read-out: Sepiapterin Concentration in Plasma, Minimum): 0 nM
Sepiapterin Concentration in Plasma, Mean ([1]; fasted, 8 h): 0 nM
Sepiapterin Concentration in Plasma, Median ([1]; fasted, 8 h): 0 nM
concentration at 2 h ([1]; fasted, 8 h, read-out: Sepiapterin Concentration in Plasma, Minimum): 0 nM
Sepiapterin Concentration in Plasma, Mean ([1]; fasted, 12 h): 0 nM
Sepiapterin Concentration in Plasma, Median ([1]; fasted, 12 h): 0 nM
concentration at 2 h ([1]; fasted, 12 h, read-out: Sepiapterin Concentration in Plasma, Minimum): 0 nM
Sepiapterin Concentration in Plasma, Mean ([1]; fasted, 24 h): 0 nM
Sepiapterin Concentration in Plasma, Median ([1]; fasted, 24 h): 0 nM
concentration at 2 h ([1]; fasted, 24 h, read-out: Sepiapterin Concentration in Plasma, Minimum): 0 nM
Sepiapterin Concentration in Plasma, Mean ([1]; fed, 0 h (predose)): 0 nM
Sepiapterin Concentration in Plasma, Median ([1]; fed, 0 h (predose)): 0 nM
concentration at 24 h ([1]; fed, 0 h (predose), read-out: Sepiapterin Concentration in Plasma, Maximum): 0 nM
concentration at 2 h ([1]; fed, 0 h (predose), read-out: Sepiapterin Concentration in Plasma, Minimum): 0 nM
Sepiapterin Concentration in Plasma, Median ([1]; fed, 0.5 h): 0 nM
concentration at 2 h ([1]; fed, 0.5 h, read-out: Sepiapterin Concentration in Plasma, Minimum): 0 nM
concentration at 2 h ([1]; fed, 4 h, read-out: Sepiapterin Concentration in Plasma, Minimum): 0 nM
Sepiapterin Concentration in Plasma, Median ([1]; fed, 8 h): 0 nM
concentration at 2 h ([1]; fed, 8 h, read-out: Sepiapterin Concentration in Plasma, Minimum): 0 nM
Sepiapterin Concentration in Plasma, Mean ([1]; fed, 12 h): 0 nM
Sepiapterin Concentration in Plasma, Median ([1]; fed, 12 h): 0 nM
concentration at 24 h ([1]; fed, 12 h, read-out: Sepiapterin Concentration in Plasma, Maximum): 0 nM
concentration at 2 h ([1]; fed, 12 h, read-out: Sepiapterin Concentration in Plasma, Minimum): 0 nM
Sepiapterin Concentration in Plasma, Mean ([1]; fed, 24 h): 0 nM
Sepiapterin Concentration in Plasma, Median ([1]; fed, 24 h): 0 nM
concentration at 24 h ([1]; fed, 24 h, read-out: Sepiapterin Concentration in Plasma, Maximum): 0 nM
concentration at 2 h ([1]; fed, 24 h, read-out: Sepiapterin Concentration in Plasma, Minimum): 0 nM
AUC0-24 and AUC0-inf of BH4, subjects administered sepiapterin compared to subjects administered BH4 [2]: much higher
TEAE ([3]; human, in vivo, 10 mg/kg): 4
TEAE related to study drug ([3]; human, in vivo, 10 mg/kg): 1
≥1 AE ([3]; human, in vivo, 10 mg/kg): 5
Incidence of adverse events, fed compared to fasted subjects ([3]; single dose 10 mg/kg): decreased incidence of adverse events
5-HIAA Mean Concentration in CSF [4, 6]: 14.6 ng/mL
HVA Mean Concentration in CSF [4, 6]: 32.3 ng/mL
Sepiapterin Mean Concentration in CSF [4, 6]: 0 ng/mL
Sepiapterin in the CSF ([4]; 60 mg/kg sepiapterin, Day 1 or Day 7 +/-30 minutes from BH4 Tmax): not detected
Change in CSF concentration of 5-HIAA relative to Day 1 ([4]; 60 mg/kg sepiapterin, Day 7): -1.142 ng/mL
5-HIAA Mean Concentration in CSF [4, 7]: 13.4 ng/mL
HVA Mean Concentration in CSF [4, 7]: 33.7 ng/mL
Sepiapterin Mean Concentration in CSF [4, 7]: 0 ng/mL
Change in CSF concentration of HVA relative to Day 1 ([4]; 60 mg/kg sepiapterin, Day 7, increase): 1.378 ng/mL
CSF 5-HIAA concentration, one subject [4, 8]: 9.53 ng/mL
CSF HVA concentration, one subject [4, 8]: 29.93 ng/mL
CSF 5-HIAA concentration, one subject [4, 9]: 3.69 ng/mL
CSF HVA concentration, one subject [4, 9]: 10.02 ng/mL
Cmax [5, 10]: 0.6 ng/mL
Tmax [5, 10]: 3 h
AUC(0-inf) ([5]; human, plasma, po, 5 mg/kg, sepiapterin 5 mg/kg once daily, Day 1, read-out: AUC0-inf of sepiapterin): 1 ng·h/mL
Cmax [5, 11]: 0.6 ng/mL
Tmax [5, 11]: 3 h
AUC(0-inf) ([5]; human, plasma, po, 5 mg/kg, sepiapterin 5 mg/kg once daily, Day 7, read-out: AUC0-inf of sepiapterin): 0.7 ng·h/mL
Cmax [5, 12]: 1.2 ng/mL
Tmax [5, 12]: 2.6 h
AUC(0-inf) ([5]; human, plasma, po, 20 mg/kg, sepiapterin 20 mg/kg once daily, Day 1, read-out: AUC0-inf of sepiapterin): 3.9 ng·h/mL
Cmax [5, 13]: 1.3 ng/mL
Tmax [5, 13]: 2.7 h
AUC(0-inf) ([5]; human, plasma, po, 20 mg/kg, sepiapterin 20 mg/kg once daily, Day 7, read-out: AUC0-inf of sepiapterin): 4.3 ng·h/mL
Cmax [5, 14]: 2.7 ng/mL
Tmax [5, 14]: 3.3 h
AUC(0-inf) ([5]; human, plasma, po, 60 mg/kg, sepiapterin 60 mg/kg once daily, Day 1, read-out: AUC0-inf of sepiapterin): 21.2 ng·h/mL
Cmax [5, 15]: 2.8 ng/mL
Tmax [5, 15]: 3 h
AUC(0-inf) ([5]; human, plasma, po, 60 mg/kg, sepiapterin 60 mg/kg once daily, Day 7, read-out: AUC0-inf of sepiapterin): 16 ng·h/mL
AUC(0-t) ([5]; human, plasma, po, sepiapterin 60 mg/kg once daily, Day 1, read-out: AUC0-24 of sepiapterin): 23 ng·h/mL
Drug accumulation (plasma sepiapterin and BH4 after 1 and 7 days of treatment) ([5]; once daily for 7 days): no drug accumulation
